Measured values: ChEMBL document CHEMBL1128191, “1-(1-[4-[(N-acetyl-4-piperidinyl)oxy]-2-methoxybenzoyl]piperidin-4-yl)-4H-3,1-benzoxazin-2(1H)-one (L-371,257): a new, orally bioavailable, non-peptide oxytocin antagonist” (J Med Chem, 1995)

How the values were obtained:
Vasopressin V1a receptor [1] = target: T1, Vasopressin V1a receptor (Homo sapiens, UniProt P37288); test: Binding affinity was evaluated by measuring the displacement of [3H]AVP (arginine vasopressin) from specific binding sites in human platelets
T1 sequence (P37288 whole entry): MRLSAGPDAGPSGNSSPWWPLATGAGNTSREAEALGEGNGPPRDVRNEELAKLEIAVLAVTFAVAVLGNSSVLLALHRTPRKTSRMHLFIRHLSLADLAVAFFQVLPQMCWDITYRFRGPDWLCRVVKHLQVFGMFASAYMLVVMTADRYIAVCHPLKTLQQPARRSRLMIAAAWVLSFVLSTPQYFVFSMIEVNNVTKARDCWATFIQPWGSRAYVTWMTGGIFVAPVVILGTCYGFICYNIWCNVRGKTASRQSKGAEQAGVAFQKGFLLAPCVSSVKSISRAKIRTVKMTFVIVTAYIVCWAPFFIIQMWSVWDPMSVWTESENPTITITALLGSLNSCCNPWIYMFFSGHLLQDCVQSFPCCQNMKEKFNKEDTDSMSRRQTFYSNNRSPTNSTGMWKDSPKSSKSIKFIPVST

Vasopressin V2 receptor [2] = target: T2, Vasopressin V2 receptor (Rattus norvegicus, UniProt Q00788); test: Binding affinity was evaluated by measuring the displacement of [3H]-AVP (arginine vasopressin) from specific binding sites in kidney medulla obtained from rats; format: tissue-based
T2 sequence (Q00788 whole entry): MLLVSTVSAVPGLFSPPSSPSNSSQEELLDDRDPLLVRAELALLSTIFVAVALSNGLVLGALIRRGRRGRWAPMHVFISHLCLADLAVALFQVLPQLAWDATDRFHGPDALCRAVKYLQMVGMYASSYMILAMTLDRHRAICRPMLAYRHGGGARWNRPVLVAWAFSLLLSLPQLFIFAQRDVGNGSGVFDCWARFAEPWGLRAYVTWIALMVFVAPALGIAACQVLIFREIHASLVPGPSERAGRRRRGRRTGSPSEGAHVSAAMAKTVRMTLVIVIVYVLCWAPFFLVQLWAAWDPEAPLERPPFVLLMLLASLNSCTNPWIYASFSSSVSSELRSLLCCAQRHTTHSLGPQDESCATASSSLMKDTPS

Vasopressin V1a receptor [3] = target: T3, Vasopressin V1a receptor (Rattus norvegicus, UniProt P30560); test: Binding affinity was evaluated by measuring the displacement of [3H]AVP (arginine vasopressin) from specific binding sites in rat liver
T3 sequence (P30560 whole entry): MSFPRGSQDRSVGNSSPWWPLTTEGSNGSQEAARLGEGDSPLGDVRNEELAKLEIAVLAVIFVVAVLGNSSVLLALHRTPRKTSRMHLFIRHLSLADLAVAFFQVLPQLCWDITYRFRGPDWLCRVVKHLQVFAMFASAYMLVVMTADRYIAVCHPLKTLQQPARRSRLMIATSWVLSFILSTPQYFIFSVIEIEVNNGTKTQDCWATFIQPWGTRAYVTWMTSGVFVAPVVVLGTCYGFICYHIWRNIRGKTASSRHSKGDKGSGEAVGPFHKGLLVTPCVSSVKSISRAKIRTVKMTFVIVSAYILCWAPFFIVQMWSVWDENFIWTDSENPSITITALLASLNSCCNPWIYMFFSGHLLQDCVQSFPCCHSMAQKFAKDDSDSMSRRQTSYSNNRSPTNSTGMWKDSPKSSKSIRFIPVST

Oxytocin receptor [4] = target: T4, Oxytocin receptor (Rattus norvegicus, UniProt P70536); test: Binding affinity was evaluated by measuring the displacement of [3H]-OT (oxytocin) from specific binding sites in uterine tissue obtained from rats
T4 sequence (P70536 whole entry): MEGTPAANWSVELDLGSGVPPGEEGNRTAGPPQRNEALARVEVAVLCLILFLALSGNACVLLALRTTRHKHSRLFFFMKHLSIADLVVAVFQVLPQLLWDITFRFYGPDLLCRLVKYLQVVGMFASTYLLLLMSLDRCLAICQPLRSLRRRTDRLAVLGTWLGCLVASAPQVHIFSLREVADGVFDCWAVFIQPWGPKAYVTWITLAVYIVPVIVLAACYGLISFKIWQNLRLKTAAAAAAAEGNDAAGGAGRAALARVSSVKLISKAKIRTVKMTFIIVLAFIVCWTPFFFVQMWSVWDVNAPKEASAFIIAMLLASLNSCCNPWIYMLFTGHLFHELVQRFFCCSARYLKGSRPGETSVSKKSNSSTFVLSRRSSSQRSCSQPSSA

Oxytocin receptor [5] = target: T5, Oxytocin receptor (Homo sapiens, UniProt P30559); test: Binding affinity was evaluated by measuring the displacement of [3H]OT (oxytocin) from specific binding sites in uterine tissue obtained from human
T5 sequence (P30559 whole entry): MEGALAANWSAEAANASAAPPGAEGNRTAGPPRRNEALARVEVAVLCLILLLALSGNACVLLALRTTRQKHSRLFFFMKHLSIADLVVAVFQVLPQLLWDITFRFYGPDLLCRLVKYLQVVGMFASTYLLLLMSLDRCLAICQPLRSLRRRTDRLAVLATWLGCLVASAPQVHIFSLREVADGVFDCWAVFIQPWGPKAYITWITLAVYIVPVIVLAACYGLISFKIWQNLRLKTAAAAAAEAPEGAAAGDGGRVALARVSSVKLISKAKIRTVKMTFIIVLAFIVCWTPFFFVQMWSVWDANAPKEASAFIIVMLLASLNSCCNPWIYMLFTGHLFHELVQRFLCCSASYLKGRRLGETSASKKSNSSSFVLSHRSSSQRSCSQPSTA

Vasopressin V1a receptor [6] = target: T1, Vasopressin V1a receptor; test: Binding affinity was evaluated by measuring the displacement of [3H]AVP (arginine vasopressin) from specific binding sites in human platelets.
Oxytocin receptor [7] = target: T5, Oxytocin receptor; test: Binding affinity was evaluated by measuring the displacement of [3H]-OT (oxytocin) from specific binding sites in uterine tissue obtained from human.
Vasopressin V1a receptor [8] = target: T3, Vasopressin V1a receptor; test: Binding affinity was evaluated by measuring the displacement of [3H]AVP (arginine vasopressin) from specific binding sites in rat liver.
Vasopressin V2 receptor [9] = target: T2, Vasopressin V2 receptor; test: Binding affinity was evaluated by measuring the displacement of [3H]AVP (arginine vasopressin) from specific binding sites in kidney medulla obtained from rats.; format: tissue-based
Vasopressin V2 receptor [10] = target: T6, Vasopressin V2 receptor (Homo sapiens, UniProt P30518); test: Binding affinity was evaluated by measuring the displacement of [3H]-AVP (arginine vasopressin) from specific binding sites in kidney medulla obtained from early postmortem human donors; format: tissue-based
T6 sequence (P30518 whole entry): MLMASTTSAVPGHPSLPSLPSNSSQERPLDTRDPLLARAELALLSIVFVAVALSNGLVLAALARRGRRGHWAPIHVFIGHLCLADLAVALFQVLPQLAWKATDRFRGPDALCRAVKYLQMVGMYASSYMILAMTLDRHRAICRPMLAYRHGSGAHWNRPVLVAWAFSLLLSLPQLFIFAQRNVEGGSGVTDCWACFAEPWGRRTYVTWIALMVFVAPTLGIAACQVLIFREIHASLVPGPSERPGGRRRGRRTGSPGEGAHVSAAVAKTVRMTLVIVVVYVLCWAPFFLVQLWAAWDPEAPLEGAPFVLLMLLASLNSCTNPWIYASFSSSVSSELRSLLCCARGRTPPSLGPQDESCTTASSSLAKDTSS

Vasopressin V2 receptor [11] = target: T6, Vasopressin V2 receptor; test: Binding affinity was evaluated by measuring the displacement of [3H]AVP (arginine vasopressin) from specific binding sites in kidney medulla obtained from early postmortem human donors.; format: tissue-based

Question: With `CC(=O)N1CCCC(COc2ccc(C(=O)N3CCC(N4C(=O)OCc5ccccc54)CC3)cc2)C1` (stereo not given) as the molecule, how does the Ki (Vasopressin V1a receptor [1]) read?
Answer: 38000 nM

Question: What about the Ki (Vasopressin V2 receptor [2]) of the same molecule?
Answer: 11000 nM

Question: What about the Ki (Vasopressin V1a receptor [3]) of the same molecule?
Answer: 24 nM

Question: And the Ki (Oxytocin receptor [4])?
Answer: 340 nM

Question: What about the Ki (Oxytocin receptor [5]) of the same molecule?
Answer: 200 nM

Question: For `CC(=O)NCCCOc1ccc(C(=O)N2CCC(N3C(=O)OCc4ccccc43)CC2)cc1`, which Ki (Oxytocin receptor [4]) is on record?
Answer: 200 nM

Question: What about the Ki (Vasopressin V1a receptor [6]) of the same molecule?
Answer: 36000 nM

Question: And the Ki (Oxytocin receptor [7])?
Answer: 130 nM

Question: What about the Ki (Vasopressin V1a receptor [8]) of the same molecule?
Answer: 31 nM

Question: And the Ki (Vasopressin V2 receptor [9])?
Answer: 35000 nM

Question: Which Ki (Oxytocin receptor [4]) does the source give for `CC(=O)NCCCOc1ccc(C(=O)N2CCC(N3C(=O)NCc4ccccc43)CC2)cc1` here?
Answer: 2400 nM

Question: And the Ki (Vasopressin V1a receptor [6])?
Answer: 62000 nM

Question: And the Ki (Oxytocin receptor [7])?
Answer: 2100 nM

Question: What about the Ki (Vasopressin V1a receptor [8]) of the same molecule?
Answer: > 1000 nM

Question: And the Ki (Vasopressin V2 receptor [9])?
Answer: > 3000 nM

Question: Which results are given for `COc1cc(OC2CCN(C(C)=O)CC2)ccc1C(=O)N1CCC(N2C(=O)OCc3ccccc32)CC1`?
Answer: Ki (Vasopressin V1a receptor [1]): 3200 nM; Ki (Vasopressin V2 receptor [2]): > 30000 nM; Ki (Vasopressin V1a receptor [3]): 3.7 nM; Ki (Vasopressin V2 receptor [10]): 37000 nM; Ki (Oxytocin receptor [5]): 4.6 nM

Question: `CC(=O)NCCCOc1ccc(C(=O)N2CCC(N3C(=O)CCc4ccccc43)CC2)cc1` was tested. Which Ki (Oxytocin receptor [4]) did it give?
Answer: 230 nM

Question: And the Ki (Vasopressin V1a receptor [6])?
Answer: 52000 nM

Question: What about the Ki (Oxytocin receptor [7]) of the same molecule?
Answer: 170 nM

Question: And the Ki (Vasopressin V2 receptor [11])?
Answer: > 81000 nM

Question: And the Ki (Vasopressin V1a receptor [8])?
Answer: 32 nM

Question: And the Ki (Vasopressin V2 receptor [9])?
Answer: > 30000 nM

Question: For `CC(=O)N1CCCCC1CCOc1ccc(C(=O)N2CCC(N3C(=O)OCc4ccccc43)CC2)cc1` (stereo not given), which Ki (Vasopressin V1a receptor [1]) is on record?
Answer: 22000 nM

Question: What about the Ki (Vasopressin V2 receptor [2]) of the same molecule?
Answer: 11000 nM

Question: And the Ki (Vasopressin V1a receptor [3])?
Answer: 15 nM

Question: And the Ki (Oxytocin receptor [5])?
Answer: 150 nM

Question: Which results are given for `CC(=O)N1CCC(Oc2ccc(C(=O)N3CCC(N4C(=O)OCc5ccccc54)CC3)cc2)CC1`?
Answer: Ki (Vasopressin V1a receptor [1]): 12000 nM; Ki (Vasopressin V2 receptor [2]): 35000 nM; Ki (Vasopressin V1a receptor [3]): 5.6 nM; Ki (Oxytocin receptor [4]): 69 nM; Ki (Oxytocin receptor [5]): 24 nM
